According to ChEMBL document CHEMBL1140215, “Discovery of sodium R-(+)-4-{2-[5-(2-fluoro-3-methoxyphenyl)-3-(2-fluoro-6-[trifluoromethyl]benzyl)-4-methyl-2,6-dioxo-3,6-dihydro-2H-pyrimidin-1-yl]-1-phenylethylamino}butyrate (elagolix), a potent and orally available nonpeptide antagonist of the human gonadotropin-releasing hormone receptor” (J Med Chem, 2008):
Activity calls are given as the source filed them. The calls are words filed in the database; no cut-off is given here.

Experiments:
[1] = molecular target: T1, Gonadotropin-releasing hormone receptor (Homo sapiens, UniProt P30968); test: Displacement of [125I-Tyr5,DLeu6,NMeLeu7,Pro9-NEt-]GnRH from human GnRH receptor expressed in HEK293 cells by liquid scintillation counting; assay type: cell-based
T1 sequence (P30968 whole entry): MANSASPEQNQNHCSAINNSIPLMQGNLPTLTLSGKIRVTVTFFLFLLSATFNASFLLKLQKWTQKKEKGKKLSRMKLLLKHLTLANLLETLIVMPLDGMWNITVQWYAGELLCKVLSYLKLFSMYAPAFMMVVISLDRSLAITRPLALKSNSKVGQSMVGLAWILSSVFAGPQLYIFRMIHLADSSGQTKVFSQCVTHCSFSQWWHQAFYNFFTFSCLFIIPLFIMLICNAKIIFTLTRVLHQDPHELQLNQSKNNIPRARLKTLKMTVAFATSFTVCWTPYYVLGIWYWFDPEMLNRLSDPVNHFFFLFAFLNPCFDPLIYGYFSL

[2] = molecular target: T1, Gonadotropin-releasing hormone receptor; test: Antagonist activity at human GnRH receptor expressed in RBL1 cells assessed as inhibition of GnRH-stimulated inositol phosphate production; assay type: functional, cell-based, RBL-1
Cytochrome P450 3A4 = Cytochrome P450 3A4 (Homo sapiens, UniProt P08684); test: Inhibition of CYP3A4; assay type: ADME
Caco-2 [3] = test: Ratio of permeability from apical to basolateral side over basolateral to apical side in human Caco-2 cells; assay type: ADME, cell-based
[4] = Volume of distribution in rat at 3 mg/kg, iv; assay type: ADME, organism-based; parameters: dose 3 mg/kg, route intravenous; settings: in vivo
[5] = Bioavailability in rat at 3 mg/kg, iv; assay type: ADME, organism-based; settings: in vivo
[6] = (§1) AUC in rat at 3 mg/kg, iv; assay type: ADME, organism-based, Plasma; parameters: dose 3 mg/kg, route intravenous; settings: plasma
[7] = Plasma clearance in rat at 3 mg/kg, iv; assay type: ADME, organism-based; parameters: dose 3 mg/kg, route intravenous
[8] = Apparent permeability across human Caco-2 cell membrane; assay type: ADME, cell-based
[9] = Tmax in rat at 3 mg/kg, iv; assay type: ADME, organism-based; parameters: dose 3 mg/kg, route intravenous; settings: in vivo
[10] = Cmax in rat at 3 mg/kg, iv; assay type: ADME, organism-based; parameters: dose 3 mg/kg, route intravenous; settings: in vivo
[11] = Half life in rat at 3 mg/kg, iv; assay type: ADME, organism-based; parameters: dose 3 mg/kg, route intravenous; settings: in vivo
Caco-2 [12] = test: Ratio of permeability from apical to basolateral side over basolateral to apical side in human Caco-2 cells at 1 mM; assay type: ADME, cell-based; settings: caco-2, 1000 µM
[13] = Volume of distribution in mouse; assay type: ADME, organism-based; settings: in vivo
[14] = Bioavailability in Beagle dog at 50 mg/kg; assay type: ADME, organism-based, Canis lupus familiaris; settings: in vivo
[15] = molecular target: T2, Gonadotropin-releasing hormone receptor (Macaca mulatta, UniProt Q8SPZ1); test: Displacement of [125I-Tyr5,DLeu6,NMeLeu7,Pro9-NEt-]GnRH from monkey GnRH receptor expressed in CHO cells by liquid scintillation counting; assay type: cell-based
T2 sequence (Q8SPZ1 whole entry): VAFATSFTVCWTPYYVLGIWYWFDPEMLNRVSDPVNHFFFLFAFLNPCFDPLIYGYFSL

[16] = Oral bioavailability in mouse; assay type: ADME, organism-based; settings: in vivo
[17] = Half life in rhesus monkey; assay type: ADME, organism-based, Macaca mulatta; settings: in vivo
[18] = Volume of distribution in rhesus monkey; assay type: ADME, organism-based, Macaca mulatta; settings: in vivo
[19] = Tmax in mouse; assay type: ADME, organism-based; settings: in vivo
[20] = Tmax in rhesus monkey; assay type: ADME, organism-based, Macaca mulatta; settings: in vivo
[21] = Cmax in rhesus monkey; assay type: ADME, organism-based, Macaca mulatta; settings: in vivo
[22] = Cmax in mouse; assay type: ADME, organism-based; settings: in vivo
[23] = Half life in mouse; assay type: ADME, organism-based; settings: in vivo
[24] = Plasma clearance in rhesus monkey; assay type: ADME, organism-based, Macaca mulatta
[25] = Plasma clearance in Beagle dog at 50 mg/kg, po; assay type: ADME, organism-based, Canis lupus familiaris; parameters: dose 50 mg/kg, route oral
[26] = Plasma clearance in mouse; assay type: ADME, organism-based
Canis familiaris = test: Volume of distribution in Beagle dog at 50 mg/kg, po; assay type: ADME, organism-based, Canis lupus familiaris; parameters: dose 50 mg/kg, route oral; settings: in vivo
[27] = Lipophilicity, log D of the compound; assay type: physicochemical; settings: octanol/water
Cynomolgus monkey [28] = test: Suppression of circulating plasma LH levels in cynomolgus monkey at 30 mg/kg, po after 8 hrs; assay type: functional, Macaca fascicularis
[29] = AUC in mouse; assay type: ADME, organism-based; settings: plasma
[30] = AUC in Beagle dog at 50 mg/kg, po; assay type: ADME, organism-based, Canis lupus familiaris; parameters: dose 50 mg/kg, route oral; settings: plasma
[31] = molecular target: T3, Gonadotropin-releasing hormone receptor (Rattus norvegicus, UniProt P30969); test: Displacement of [125I-Tyr5,DLeu6,NMeLeu7,Pro9-NEt-]GnRH from rat GnRH receptor expressed in CHO cells by liquid scintillation counting; assay type: cell-based
T3 sequence (P30969 whole entry): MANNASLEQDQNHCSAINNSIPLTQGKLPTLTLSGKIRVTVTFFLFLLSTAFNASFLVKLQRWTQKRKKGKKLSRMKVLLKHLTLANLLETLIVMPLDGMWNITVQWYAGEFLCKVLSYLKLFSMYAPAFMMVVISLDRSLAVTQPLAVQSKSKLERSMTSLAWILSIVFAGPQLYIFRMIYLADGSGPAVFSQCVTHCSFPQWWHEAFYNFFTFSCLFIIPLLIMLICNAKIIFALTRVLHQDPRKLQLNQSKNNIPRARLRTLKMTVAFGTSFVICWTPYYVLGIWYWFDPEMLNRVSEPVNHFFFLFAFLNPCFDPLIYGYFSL

[32] = Cmax in Beagle dog at 50 mg/kg, po; assay type: ADME, organism-based, Canis lupus familiaris; parameters: dose 50 mg/kg, route oral; settings: in vivo
Mast cell = test: Induction of histamine release in rat peritoneal mast cells; assay type: functional, cell-based
[33] = Tmax in Beagle dog at 50 mg/kg, po; assay type: ADME, organism-based, Canis lupus familiaris; parameters: dose 50 mg/kg, route oral; settings: in vivo
[34] = Oral bioavailability in rhesus monkey; assay type: ADME, organism-based, Macaca mulatta; settings: in vivo
[35] = Half life in Beagle dog at 50 mg/kg, po; assay type: ADME, organism-based, Canis lupus familiaris; parameters: dose 50 mg/kg, route oral; settings: in vivo
[36] = AUC in rhesus monkey; assay type: ADME, organism-based, Macaca mulatta; settings: plasma
[37] = AUC in rat at 10 mg/kg, iv and 10 mg/kg, po; assay type: ADME, organism-based; settings: plasma
[38] = Cmax in rat at 10 mg/kg, iv and 10 mg/kg, po; assay type: ADME, organism-based; settings: in vivo
[39] = Tmax in rat at 10 mg/kg, iv and 10 mg/kg, po; assay type: ADME, organism-based; settings: in vivo
Rattus norvegicus = test: as §1; assay type: ADME, organism-based, Plasma; parameters: dose 3 mg/kg, route intravenous; settings: in vivo
[40] = Plasma clearance in rat at 10 mg/kg, iv and 10 mg/kg, po; assay type: ADME, organism-based
[41] = Oral bioavailability in rat at 10 mg/kg, iv and 10 mg/kg, po; assay type: ADME, organism-based; settings: in vivo
Cynomolgus monkey [42] = test: Suppression of circulating plasma LH levels in cynomolgus monkey at 30 mg/kg, po after 4 to 8 hrs; assay type: functional, Macaca fascicularis
[43] = Half life in rat at 10 mg/kg, iv and 10 mg/kg, po; assay type: ADME, organism-based; settings: in vivo
[44] = Volume of distribution in rat at 10 mg/kg, iv and 10 mg/kg, po; assay type: ADME, organism-based; settings: in vivo

Sequence of Cytochrome P450 3A4 (P08684 whole entry): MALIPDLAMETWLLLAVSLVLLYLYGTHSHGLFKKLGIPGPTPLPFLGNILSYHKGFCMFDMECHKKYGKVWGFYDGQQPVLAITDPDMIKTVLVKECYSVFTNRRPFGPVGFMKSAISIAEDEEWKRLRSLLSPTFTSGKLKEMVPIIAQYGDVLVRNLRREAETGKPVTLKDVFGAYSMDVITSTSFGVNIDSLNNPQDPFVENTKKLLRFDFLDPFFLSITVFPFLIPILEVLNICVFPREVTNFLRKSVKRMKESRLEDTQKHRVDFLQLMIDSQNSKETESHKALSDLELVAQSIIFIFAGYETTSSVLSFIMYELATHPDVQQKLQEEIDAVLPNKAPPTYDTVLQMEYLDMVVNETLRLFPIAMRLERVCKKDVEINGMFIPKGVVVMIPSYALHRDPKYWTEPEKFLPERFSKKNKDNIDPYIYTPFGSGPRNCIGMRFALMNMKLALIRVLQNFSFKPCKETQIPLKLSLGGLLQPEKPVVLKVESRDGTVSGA

COc1cccc(-c2c(C)n(Cc3c(F)cccc3Cl)c(=O)n(C[C@H](NCCCC(=O)O)c3ccccc3)c2=O)c1F
Ki [1]: 0.0011 µM
IC50 [2]: 0.0032 µM
IC50 (Cytochrome P450 3A4): 11 µM

COc1cccc(-c2c(C)n(Cc3c(F)cccc3C(F)(F)F)c(=O)n(C[C@@H](c3ccccc3)N(C)CCCC(=O)O)c2=O)c1F
Ratio (Caco-2 [3]): 4
Vd [4]: 3.2 L/kg
Ki [1]: 0.0037 µM
bioavailability [5]: 3.7%
AUC [6]: 0.385 µg·h/mL
clearance [7]: 1.58 L/h/kg
Papp [8]: 75 nm/s
Tmax [9]: 0.25 h
Cmax [10]: 0.592 µg/mL
IC50 (Cytochrome P450 3A4): 69 µM
half-life [11]: 2.6 h

COc1cccc(-c2c(C)n(Cc3c(F)cccc3C(F)(F)F)c(=O)n(C[C@H](NCCCCC(=O)O)c3ccccc3)c2=O)c1F
Ki [1]: 0.0076 µM
IC50 (Cytochrome P450 3A4): 29 µM

COc1cccc(-c2c(C)n(Cc3c(F)cccc3C(F)(F)F)c(=O)n(C[C@H](NCCCC(=O)[O-])c3ccccc3)c2=O)c1F.[Na+] [ELAGOLIX SODIUM]
Ratio (Caco-2 [12]): 1.3
Vd [13]: 1.4 L/kg
bioavailability [14]: 100%
Ki [15]: 0.0033 µM
bioavailability [16]: 10%
half-life [17]: 1.1 h
Vd [18]: 2.5 L/kg
Ratio (Caco-2 [3]): 9.2
Tmax [19]: 0.25 h
Tmax [20]: 0.69 h
Cmax [21]: 0.518 µg/mL
Vd [4]: 2.6 L/kg
Cmax [22]: 0.741 µg/mL
half-life [23]: 0.3 h
clearance [24]: 1.54 L/h/kg
CL/F [25]: 0.87 L/h/kg
clearance [26]: 3 L/h/kg
Vd (Canis familiaris): 0.92 L/kg
logD [27]: 2
Activity (Cynomolgus monkey [28]): 75%
AUC [29]: 0.326 µg·h/mL
Ki [1]: 0.0009 µM
IC50 [2]: 0.0015 µM
AUC [30]: 80.7 µg·h/mL
Ki [31]: 4.4 µM
Cmax [32]: 13.9 µg/mL
bioavailability [5]: 5.8%
Activity (Mast cell): inactive
Tmax [33]: 2 h
AUC [6]: 0.29 µg·h/mL
clearance [7]: 2 L/h/kg
bioavailability [34]: 11%
Papp [8]: 28 nm/s
Tmax [9]: 0.25 h
Cmax [10]: 0.338 µg/mL
half-life [35]: 2.8 h
IC50 (Cytochrome P450 3A4): 56 µM
half-life [11]: 0.9 h
AUC [36]: 0.699 µg·h/mL

COc1cccc(-c2c(C)n(Cc3c(F)cccc3C(F)(F)F)c(=O)n(C[C@H](N)c3ccccc3)c2=O)c1F
AUC [37]: 0.046 µg·h/mL
Cmax [38]: 0.015 µg/mL
IC50 [2]: 0.0005 µM
Ki [31]: 1.2 µM
Tmax [39]: 1.2 h
IC50 (Cytochrome P450 3A4): 0.23 µM

COc1cccc(-c2c(C)n(Cc3c(F)cccc3F)c(=O)n(C[C@H](NCCCC(=O)O)c3ccccc3)c2=O)c1F
Ratio (Caco-2 [3]): 51
Vd [4]: 8.5 L/kg
logD [27]: 0.2
Ki [1]: 0.0021 µM
IC50 [2]: 0.027 µM
Ki [31]: > 10 µM
bioavailability [5]: 1.1%
AUC (Rattus norvegicus): 0.081 µg·h/mL
Papp [8]: 4 nm/s
Tmax [9]: 0.8 h
Cmax [10]: 0.025 µg/mL
IC50 (Cytochrome P450 3A4): 135 µM
half-life [11]: 4.5 h

COc1cccc(-c2c(C)n(Cc3c(F)cccc3C(F)(F)F)c(=O)n(C[C@H](NCCC(=O)O)c3ccccc3)c2=O)c1F
Ki [1]: 0.012 µM
IC50 (Cytochrome P450 3A4): 69 µM

COc1cccc(-c2c(C)n(Cc3c(F)cccc3C(F)(F)F)c(=O)n(C[C@H](NCC(=O)O)c3ccccc3)c2=O)c1F
Ki [1]: 0.071 µM

COc1cccc(-c2c(C)n(Cc3c(F)cccc3F)c(=O)n(C[C@H](N)c3ccccc3)c2=O)c1F
clearance [40]: 3.88 L/h/kg
AUC [37]: 0.106 µg·h/mL
Cmax [38]: 0.0242 µg/mL
logD [27]: 1.8
bioavailability [41]: 3.5%
Activity (Cynomolgus monkey [42]): 50%
half-life [43]: 1.3 h
Tmax [39]: 1 h
Papp [8]: 176 nm/s
Vd [44]: 7.1 L/kg
IC50 (Cytochrome P450 3A4): 0.7 µM

COC(=O)CCCN[C@@H](Cn1c(=O)c(-c2cccc(OC)c2F)c(C)n(Cc2c(F)cccc2C(F)(F)F)c1=O)c1ccccc1
Ki [1]: 0.0042 µM
IC50 (Cytochrome P450 3A4): 0.44 µM
